Structures can show the parent of a compound that is named as a salt.
How the values were obtained:
[1] = HPLC/UV analysis of liver and cerebral cortex homogenates for parent drug, primary metabolite and glucuronide conjugates; type: in vivo, Female Fischer 344 rats; settings: for peaks corresponding to the glucuronide conjugates in the HPLC chromatogram of the cerebral cortex homogenate: eight hours after dosing
Experimental: A liver and cerebral cortex homogenate were analyzed by HPLC and UV detection at 315 nm to determine if the radioactivity in these tissues was actually due to the drug initially dosed, to the primary metabolite, 6-hydroxy-2-(4-hydroxyphenyl)-3-[4-(piperidinoethoxy)phenoxy]-benzo[b]thiophene, or there glucuronide conjugates. The cerebral cortex sample was obtained eight hours after dosing and the liver samples were collected at four and eight hours after dosing. The proteins in the homogenate were precipitated with acetonitrile and the supernate was evaporated to dryness. The residue was reconstituted in mobile phase and injected onto a SynChropak SCD-100 column with the initial mobile phase composed of […]. (v/v/v). The retention times of the peaks from the homogenate were compared with those obtained from authentic samples of 6-hydroxy-2-(4-methoxyphenyl)-3-[4-(piperidinoethoxy)phenoxy]benzo[b]thiophene and its metabolite, 6-hydroxy-2-(4-hydroxyphenyl)-3-[4-(piperidinoethoxy)phenoxy]benzo [b]-thiophene.

[2] = system: gene expression in the hippocampus; test: Differential mRNA display in hippocampi of ovariectomized rats after five weeks of daily treatment; type: in vivo, female Sprague-Dawley rats; settings: 1 mg/kg daily subcutaneous, comparator estradiol benzoate 0.03 mg/kg
Experimental: A commonly employed model of estrogen depletion is the ovariectomized adult rat. An experiment was conducted in ovariectomized rats using differential mRNA display to determine the similarities and/or differences between a representative compound of the present invention, 6-hydroxy-2-(4-methoxyphenyl)-3-[4-(2-piperidinoethoxy)phenoxy]-benzo[b]thiophene, and estrogen at affecting gene expression in various brain regions. Specifically, female Sprague-Dawley rats, 6 weeks of age, were ovariectomized by the vendor. Following one week of acclimation to the laboratory facility, daily subcutaneous injections of estradiol benzoate (0.03 mg/kg) or 6-hydroxy-2-(4-methoxyphenyl)-3-[4-(2-piperidinoethoxy)phenoxy]-benzo[b]thiophene (1 mg/kg), or vehicle (control) were initiated.
After five weeks of daily treatment, animals were sacrificed and their brains removed and hippocampi collected by microdissection. The hippocampi were fast frozen in liquid nitrogen and stored at −70_C. Total RNA was prepared from pooled tissue from the appropriate treatment and control groups and reverse transcribed using a 3′ oligonucleotide primer which selected for specific mRNA (poly-A+) populations. Polymerase chain reactions (PCR) were carried out in a cocktail consisting of: random 5′ oligonucleotides (10 base-pairs in length; total of 150), reaction buffer, Taq polymerase, and a ^32PdTCP. […]

[3] = Distribution of radioactivity among tissues after a single oral dose of 14C-labeled compound in the female F344 rat; type: in vivo, Female Fischer 344 rats
Experimental: Female Fischer 344 rats (approximately twelve weeks old) were given a single oral gavage dose of 5 mg/kg (30 mCi/kg) of ^14C-labeled 6-hydroxy-2-(4-methoxyphenyl)-3-[4-(piperidinoethoxy)phenoxy]benzo[b]thiophene hydrochloride in 50% PEG 300/50% water. Blood and tissues were collected from three rats at each time point: just prior to dosing and at 2, 4, 8, and 24 hours after dosing. At each time point, the animals were sacrificed, blood samples were collected and the heparinized blood was centrifuged and the plasma obtained. Following collection of the bloood sample in each case, the animals were perfused with 0.9% saline solution and the brain, pituitary, femurs, ovaries, uterus and liver were surgically removed and placed in separate containers. […]
The radioactivity of each sample was determined by liquid scintillation spectrometry. Plasma was counted directly, while the other tissues were either homogenized, digested, or oxidized prior to liquid scintillation counting. […]
Samples were oxidized on a Packard Model307 Oxidizer and the resulting ^14CO2 trapped for liquid scintillation counting. The radioactivity in each tissue sample was converted to nanogram equivalents per gram of tissue (specific activity=16.3 dpm/ng). The 0-24 hour area under the curve (AUC0-24 hr) was calculated for each sample.

Row | Structure (SMILES) | melting point | also measured
1 | COc1ccc(-c2sc3cc(OC)ccc3c2Oc2ccc(OCCN3CCCCC3)cc2)cc1 (as salt: hydrochloride) [Example 2, [6-methoxy-3-[4-[2-(1-piperidinyl)ethoxy]-phenoxy]-2-(4-methoxyphenyl)]benzo[b]thiophene hydrochloride salt] | 216 to 220 °C | –
2 | COc1ccc(-c2sc3cc(OC)ccc3c2Oc2ccc(OCCN3CCCCCC3)cc2)cc1 (as salt: hydrochloride) [Example 4, [6-Methoxy-3-[4-[2-(1-hexamethyleneimino)ethoxy]phenoxy]-2-(4-methoxyphenyl)]benzo[b]thiophene Hydrochloride] | 189 to 192 °C | –
3 | CCN(CC)CCOc1ccc(Oc2c(-c3ccc(OC)cc3)sc3cc(OC)ccc23)cc1 (as salt: hydrochloride) [Example 5, [6-Methoxy-3-[4-[2-(1-N,N-diethylamino)ethoxy]phenoxy]-2-(4-methoxyphenyl)]benzo[b]thiophene Hydrochloride] | 196 to 198 °C | –
4 | COc1ccc(-c2sc3cc(OC)ccc3c2Oc2ccc(OCCN3CCOCC3)cc2)cc1 (as salt: hydrochloride) [Example 6, [6-Methoxy-3-[4-[2-(morpholino)ethoxy]-phenoxy]-2-(4-methoxyphenyl)]benzo[b]thiophene Hydrochloride] | 208 to 211 °C | –
5 | Oc1ccc(-c2sc3cc(O)ccc3c2Oc2ccc(OCCN3CCOCC3)cc2)cc1 (as salt: hydrochloride) [Example 13, [6-Hydroxy-3-[4-[2-(morpholino)ethoxy]-phenoxy]-2-(4-hydroxyphenyl)]benzo[b]thiophene Hydrochloride] | 157 to 162 °C | –
6 | COc1ccc2c(Oc3ccc(OCCN4CCCCC4)cc3)c(-c3ccc(O)cc3)sc2c1 (as salt: hydrochloride) [Example 17, [6-methoxy-3-[4-[2-(1-piperidinyl)ethoxy]-phenoxy]-2-(4-hydroxyphenyl)]benzo[b]thiophene Hydrochloride] | 215 to 217 °C | –
7 | COc1ccc(-c2sc3cc(OC)ccc3c2Oc2ccc(OCCN3CCCCC3)cc2)cc1 (as salt: oxalate) [Example 1, [6-methoxy-3-[4-[2-(1-piperidinyl)ethoxy]-phenoxy]-2-(4-methoxyphenyl)]benzo[b]thiophene Oxalate Salt] | 197 to 200 °C (dec.) | –
8 | COc1ccc(-c2sc3cc(OC)ccc3c2Oc2ccc(OCCN3CCCC3)cc2)cc1 [Example 3, [6-Methoxy-3-[4-[2-(1-pyrolodinyl)ethoxy]-phenoxy]-2-(4-methoxyphenyl)]benzo[b]thiophene] | 95 to 98 °C | –
9 | Oc1ccc(-c2sc3cc(O)ccc3c2Oc2ccc(OCCN3CCCCC3)cc2)cc1 [Example 7, [6-Hydroxy-3-[4-[2-(1-piperidinyl)ethoxy]-phenoxy]-2-(4-hydroxyphenyl)]benzo[b]thiophene] | – | peaks corresponding to the glucuronide conjugates in the HPLC chromatogram of the cerebral cortex homogenate [1]: not observed
10 | Oc1ccc(-c2sc3cc(O)ccc3c2Oc2ccc(OCCN3CCCC3)cc2)cc1 [Example 10, [6-Hydroxy-3-[4-[2-(1-pyrolidinyl)ethoxy]-phenoxy]-2-(4-hydroxyphenyl)]benzo[b]thiophene] | 99 to 113 °C | –
11 | Oc1ccc(-c2sc3cc(O)ccc3c2Oc2ccc(OCCN3CCCCCC3)cc2)cc1 [Example 11, [6-Hydroxy-3-[4-[2-(1-hexamethyleneimino)ethoxy]phenoxy]-2-(4-hydroxyphenyl)]benzo[b]thiophene] | 125 to 130 °C | –
12 | CCN(CC)CCOc1ccc(Oc2c(-c3ccc(O)cc3)sc3cc(O)ccc23)cc1 [Example 12, [6-Hydroxy-3-[4-[2-(1-N,N-diethylamino)ethoxy]phenoxy]-2-(4-hydroxyphenyl)]benzo[b]thiophene] | 137 to 141 °C | –
13 | COc1ccc(-c2sc3cc(O)ccc3c2Oc2ccc(OCCN3CCCCC3)cc2)cc1 [Example 14, [6-Hydroxy-3-[4-[2-(1-piperidinyl)ethoxy]-phenoxy]-2-(4-methoxyphenyl)]benzo[b]thiophene] | – | mRNA display pattern in rat hippocampus compared with that observed for estrogen [2]: parallel pattern of gene activation or inactivation
14 | COc1ccc(-c2sc3cc(O)ccc3c2Oc2ccc(OCCN3CCCCC3)cc2)cc1 [Example 15, [6-Hydroxy-3-[4-[2-(1-piperidinyl)ethoxy]-phenoxy]-2-(4-methoxyphenyl)]benzo[b]thiophene Hydrochloride Salt] | – | time after dosing at which peak levels of radioactive material were reached ([3]; all tissues with the exception of the liver): 8 h; time after dosing at which peak levels of radioactive material were reached ([3]; liver): 4 h; peaks corresponding to the glucuronide conjugates in the HPLC chromatogram of the cerebral cortex homogenate [1]: not observed; peaks in the HPLC chromatogram of the liver homogenates ([1]; liver samples collected at four and eight hours after dosing): peaks whose retention times corresponded to the parent compound and its glucuronide conjugate
15 | COc1ccc2c(Oc3ccc(OCCN4CCCCC4)cc3)c(-c3ccc(O)cc3)sc2c1 [Example 16, [6-methoxy-3-[4-[2-(1-piperidinyl)ethoxy]phenoxy]-2-(4-hydroxyphenyl)]benzo[b]thiophene] | 147 to 150 °C | –

Source: patent publication US20020013342A1, “Treatment of central nervous system disorders with selective estrogen receptor modulators” (priority 1997, published 2002)
